# Read-outs that look alike come from different tables or passages of the source.
# Columns and labels:
# [1] = cited from earlier work; for Kel / T1/2el: arithmetic mean; for AUCT / Cmax: geometric mean
# [2] = Colchicine pharmacokinetics coadministered with voriconazole
# [3] = cited from earlier work; for AUCT / Cmax: geometric mean
# [4] = for AUCT/∞ / Kel / T1/2el: mean
# From the text: Subjects were included only if they were not older than 45 years (as opposed to no upper limit). Also, in inclusion criteria the lower threshold for the body mass index was 21.00 (as opposed to 18.00) kg/m^2.
# [5] = cited from earlier work; for Kel / T1/2el: arithmetic mean
# [6] = colchicine coadministered with azithromycin; cited from earlier work
# [7] = Treatment-1: colchicine 0.6 mg alone (day 1, fasted), diltiazem ER study
# [8] = Treatment-2: colchicine 0.6 mg (day 21) + diltiazem ER 240 mg once daily (days 15-21)
# [9] = of 12 subjects, cimetidine study
# [10] = of 12 subjects, colchicine + cimetidine
# [11] = Treatment-1 (day 1): colchicine 0.6 mg alone, fasted, voriconazole study, mean
# [12] = Treatment-2 (day 9): colchicine 0.6 mg + voriconazole 200 mg after twice daily days 4-8, fasted, mean
# [13] = Treatment-1: colchicine 0.6 mg alone (day 1, fasted), ritonavir study, arithmetic mean
# [14] = Treatment-1: colchicine 0.6 mg alone (day 1, fasted), ritonavir study
# [15] = Treatment-2: colchicine 0.6 mg (day 19) + ritonavir 100 mg twice daily (days 15-19)
# [16] = Treatment-1 (day 1): colchicine 0.6 mg alone, fasted, propafenone study
# [17] = Treatment-2 (day 9): colchicine 0.6 mg + propafenone 225 mg after twice daily days 4-8, fasted
# [18] = coadministration with propafenone vs colchicine alone
# [19] = Treatment-1: colchicine 0.6 mg alone (day 1, fasted), verapamil ER study
# [20] = Treatment-1: colchicine 0.6 mg alone (day 1, fasted), verapamil ER study, geometric mean
# [21] = Treatment-2: colchicine 0.6 mg (day 19) + verapamil ER 240 mg once daily (days 15-19)
structure (smiles),measurement,setting,value
"COc1cc2c(c(OC)c1OC)-c1ccc(OC)c(=O)cc1[C@@H](NC(C)=O)CC2 [Colchicine, (S)N-(5,6,7,9-tetrahydro-1,2,3,10-tetramethoxy-9-oxobenzo[alpha]heptalen-7-yl)acetamide]",Kel,[1]; [7],0.1589 h⁻¹
same,T1/2el,[1]; [7],5.51 h
same,CLTOT/F,[1]; [7],58.88 L/h
same,AUCT,[1]; [7],"10,040 pg · h/mL"
same,Cmax,[1]; [7],"2,170 pg/mL"
same,Kel,[1]; [8],0.0838 h⁻¹
same,T1/2el,[1]; [8],12.5 h
same,CLTOT/F,[1]; [8],34.7 L/h
same,AUCT,[1]; [8],"12,730 pg · h/mL"
same,Cmax,[1]; [8],"2,800 pg/mL"
same,Number of adverse events requiring medication after Treatment-1,cimetidine study,None
same,Number of serious adverse events or deaths,cimetidine study,None
same,Total number of adverse events after Treatment-1,cimetidine study,11
same,Total number of adverse events after Treatment-2,colchicine + cimetidine,2
same,Number of subjects experiencing adverse events after Treatment-1,[9],7
same,Percent of subjects experiencing adverse events after Treatment-1,[9],58.3%
same,Number of subjects experiencing adverse events after Treatment-2,[10],1
same,Percent of subjects experiencing adverse events after Treatment-2,[10],8.3%
same,AUCT/∞,[2]; [11],87.75%
same,Kel,[2]; [11],0.0240 h⁻¹
same,T1/2el,[2]; [11],29.63 h
same,AUCT/∞,[2]; [12],86.14%
same,Kel,[2]; [12],0.0227 h⁻¹
same,T1/2el,[2]; [12],31.30 h
same,Decrease of colchicine Cmax,[2]; coadministration with voriconazole vs colchicine alone,about 20%
same,CL/F,"[2]; male, human, in vivo, 0.6 mg",550 mL/min
same,Tmax,"[2]; male, human, in vivo, 0.6 mg",1.38 h
same,Vd/F,"[2]; male, human, in vivo, 0.6 mg",1350 L
same,AUC(0-t),"[2]; male, human, in vivo, 0.6 mg, AUCT GEOMETRIC LSMEANS, Treatment-1: colchicine 0.6 mg alone, voriconazole study",17.9 ng·h/mL
same,AUC(0-t),"[2]; male, human, in vivo, 0.6 mg, AUCT, Treatment-1 (day 1): colchicine 0.6 mg alone, fasted, voriconazole study, mean",19.6 ng·h/mL
same,AUC(0-inf),"[2]; male, human, in vivo, 0.6 mg, AUC∞ GEOMETRIC LSMEANS, Treatment-1: colchicine 0.6 mg alone, voriconazole study",20.5 ng·h/mL
same,AUC(0-inf),"[2]; male, human, in vivo, 0.6 mg, AUC∞, Treatment-1 (day 1): colchicine 0.6 mg alone, fasted, voriconazole study, mean",22.4 ng·h/mL
same,Cmax,"[2]; male, human, in vivo, 0.6 mg, Cmax GEOMETRIC LSMEANS, Treatment-1: colchicine 0.6 mg alone, voriconazole study",2.3 ng/mL
same,Cmax,"[2]; male, human, in vivo, 0.6 mg, Cmax, Treatment-1 (day 1): colchicine 0.6 mg alone, fasted, voriconazole study, mean",2.66 ng/mL
same,AUC(0-t),"[2]; male, human, in vivo, AUCT GEOMETRIC LSMEANS, Treatment-2: colchicine 0.6 mg + voriconazole",19.5 ng·h/mL
same,AUC(0-t),"[2]; male, human, in vivo, AUCT, Treatment-2 (day 9): colchicine 0.6 mg + voriconazole 200 mg after twice daily days 4-8, fasted, mean",20.7 ng·h/mL
same,AUC(0-inf),"[2]; male, human, in vivo, AUC∞ GEOMETRIC LSMEANS, Treatment-2: colchicine 0.6 mg + voriconazole",22.7 ng·h/mL
same,AUC(0-inf),"[2]; male, human, in vivo, AUC∞, Treatment-2 (day 9): colchicine 0.6 mg + voriconazole 200 mg after twice daily days 4-8, fasted, mean",24.1 ng·h/mL
same,Cmax,"[2]; male, human, in vivo, Cmax GEOMETRIC LSMEANS, Treatment-2: colchicine 0.6 mg + voriconazole",1.83 ng/mL
same,Cmax,"[2]; male, human, in vivo, Cmax, Treatment-2 (day 9): colchicine 0.6 mg + voriconazole 200 mg after twice daily days 4-8, fasted, mean",2.06 ng/mL
same,Kel,[3]; [13],0.1666 h⁻¹
same,T1/2el,[3]; [13],5.15 h
same,CLTOT/F,[3]; [14],67.93 L/h
same,AUCT,[3]; [14],"8,410 pg · h/mL"
same,Cmax,[3]; [14],"1,870 pg/mL"
same,T1/2el,"[3]; Treatment-2: colchicine 0.6 mg (day 19) + ritonavir 100 mg twice daily (days 15-19), arithmetic mean",17.41 h
same,CLTOT/F,[3]; [15],18.59 L/h
same,AUCT,[3]; [15],"29,050 pg · h/mL"
same,Cmax,[3]; [15],"4,990 pg/mL"
same,AUCT/∞,[4]; [16],88.21%
same,Kel,[4]; [16],0.0241 h⁻¹
same,T1/2el,[4]; [16],29.74 h
same,AUCT/∞,[4]; [17],89.16%
same,Kel,[4]; [17],0.0250 h⁻¹
same,T1/2el,[4]; [17],28.25 h
same,Tmax (median hours),"[4]; Treatment-2 (day 9): colchicine 0.6 mg + propafenone 225 mg after twice daily days 4-8, fasted, median",1.00 h
same,Increase of colchicine AUC,[4]; [18],1%
same,Increase of colchicine Cmax,[4]; [18],7%
same,Kel,[5]; [19],0.1409 h⁻¹
same,T1/2el,[5]; [19],4.3 h
same,CLTOT/F,[5]; [19],43.93 L/h
same,AUCT,[5]; [20],"13,090 pg · h/mL"
same,Cmax,[5]; [20],"2,970 pg/mL"
same,Kel,[5]; [21],0.0480 h⁻¹
same,T1/2el,[5]; [21],17.17 h
same,CLTOT/F,[5]; [21],21.01 L/h
same,Cmax,"[5]; Treatment-2: colchicine 0.6 mg (day 19) + verapamil ER 240 mg once daily (days 15-19), geometric mean","3,850 pg/mL"
same,Number of 24 subjects with adverse events overall,[6],11
same,Percent of 24 subjects with adverse events overall,[6],(45.8) %
same,Total number of adverse events,[6],27

# Source: patent US9555029B2 (HIKMA PHARMACEUTICALS, priority 2013, dated 2017)
